Assay results from ChEMBL document CHEMBL1147596, “Subtype selective NMDA receptor antagonists: evaluation of some novel alkynyl analogues” (Bioorg Med Chem Lett, 2004).
Calls of active or inactive are those of the source. The calls are words filed in the database; no cut-off is given here.

Columns and labels:
[1] = target: Glutamate NMDA receptor; Grin1/Grin2b (Rattus norvegicus, UniProt P35439+Q00960); experiment: Binding affinity against NR1A/2B receptor in rat brains by [3H]ifenprodil displacement.; assay type: tissue-based, Brain
Sequence of Glutamate NMDA receptor; Grin1/Grin2b (Q00960 whole entry, other chains not shown): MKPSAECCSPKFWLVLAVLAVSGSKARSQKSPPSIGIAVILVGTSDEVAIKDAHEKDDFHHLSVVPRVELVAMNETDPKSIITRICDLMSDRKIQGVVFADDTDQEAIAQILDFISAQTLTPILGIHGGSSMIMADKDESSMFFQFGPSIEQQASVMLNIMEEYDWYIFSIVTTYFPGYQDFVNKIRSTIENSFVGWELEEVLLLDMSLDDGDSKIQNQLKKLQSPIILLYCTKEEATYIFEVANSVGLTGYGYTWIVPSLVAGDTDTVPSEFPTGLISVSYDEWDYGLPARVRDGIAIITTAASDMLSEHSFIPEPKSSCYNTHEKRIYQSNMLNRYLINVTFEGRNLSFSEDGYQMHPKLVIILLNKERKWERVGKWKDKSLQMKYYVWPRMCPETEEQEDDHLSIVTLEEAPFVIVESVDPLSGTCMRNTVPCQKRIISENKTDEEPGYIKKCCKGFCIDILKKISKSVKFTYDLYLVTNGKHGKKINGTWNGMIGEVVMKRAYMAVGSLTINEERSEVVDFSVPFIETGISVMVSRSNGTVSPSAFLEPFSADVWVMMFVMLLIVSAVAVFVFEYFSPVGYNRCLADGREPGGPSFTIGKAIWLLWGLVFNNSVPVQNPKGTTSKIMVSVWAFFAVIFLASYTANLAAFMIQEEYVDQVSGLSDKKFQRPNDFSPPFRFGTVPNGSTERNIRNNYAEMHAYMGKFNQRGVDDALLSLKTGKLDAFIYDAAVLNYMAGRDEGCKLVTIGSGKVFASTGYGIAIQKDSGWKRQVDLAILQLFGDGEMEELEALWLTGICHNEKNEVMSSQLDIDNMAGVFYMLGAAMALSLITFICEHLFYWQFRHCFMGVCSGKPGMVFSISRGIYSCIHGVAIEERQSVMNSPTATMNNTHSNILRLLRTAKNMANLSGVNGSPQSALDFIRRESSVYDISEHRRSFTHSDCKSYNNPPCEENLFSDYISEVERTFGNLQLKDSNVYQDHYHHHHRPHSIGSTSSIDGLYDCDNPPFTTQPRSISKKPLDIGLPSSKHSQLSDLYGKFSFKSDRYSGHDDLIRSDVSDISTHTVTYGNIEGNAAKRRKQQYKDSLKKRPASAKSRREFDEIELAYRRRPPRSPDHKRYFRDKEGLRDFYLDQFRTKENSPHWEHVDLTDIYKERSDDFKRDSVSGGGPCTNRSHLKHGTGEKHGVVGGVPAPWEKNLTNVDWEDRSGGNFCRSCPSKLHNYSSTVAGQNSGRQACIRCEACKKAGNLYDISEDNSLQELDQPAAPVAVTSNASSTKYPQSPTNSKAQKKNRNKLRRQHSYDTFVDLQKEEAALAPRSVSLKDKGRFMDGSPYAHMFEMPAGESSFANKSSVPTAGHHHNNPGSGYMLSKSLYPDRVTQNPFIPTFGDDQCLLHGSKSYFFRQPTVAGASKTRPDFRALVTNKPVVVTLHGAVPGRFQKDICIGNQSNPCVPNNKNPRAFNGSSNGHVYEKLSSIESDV

[2] = test system: Rattus norvegicus; experiment: In vivo minimum effective dose for anti-Parkinsonian activity in 6-OHDA rat model upon p.o. administration; Not active.; assay type: functional
[3] = test system: Rattus norvegicus; experiment: In vivo minimum effective dose inhibition of neuropathic pain (formalin test) upon p.o. administration; Not active.; assay type: functional, organism-based
[4] = test system: Rattus norvegicus; experiment: Minimum effective dose required to measure neuropathic pain (In vivo) by formalin test upon p.o. […] in rat; assay type: functional; settings: po, read-out: MED
[5] = test system: Rattus norvegicus; experiment: Minimum effective dose required to measure anti-parkinson's activity (In vivo) upon p.o. […] in rat; assay type: functional; settings: po, read-out: MED
[6] = Binding affinity against NR1A/2B receptor using [3H]-ifenprodil radioligand in native rat brains; NA means not active

Row | IC50 [1] [nM] | Compound | MED [2] | MED [3] | further results
1 | 9 | COc1cc2[nH]c(=O)[nH]c2cc1C#CCN1CCC(Cc2ccc(F)cc2)CC1 | – | – | –
2 | 4 | Cc1cc2[nH]c(=O)[nH]c2cc1C#CCN1CCC(Cc2ccc(F)cc2)CC1 | – | – | –
3 | 14 | Oc1nc2cc(C#CCN3CCC(Cc4cccc(F)c4)CC3)ccc2[nH]1 | inactive | inactive | –
4 | – | CC(C#Cc1ccc2[nH]c(O)nc2c1)N1CCC(Cc2ccc(F)cc2)CC1 (stereo not drawn) | inactive | inactive | –
5 | – | Oc1nc2c(C#CCN3CCC(Cc4ccc(F)cc4)CC3)cccc2[nH]1 | inactive | inactive | –
6 | – | Cc1cc2[nH]c(O)nc2cc1C#CCN1CCC(Cc2ccc(F)cc2)CC1 | inactive | inactive | –
7 | 100 | CC(C#Cc1ccc2[nH]c(=O)[nH]c2c1)N1CCC(Cc2ccc(F)cc2)CC1 (stereo not drawn) | – | – | –
8 | – | COc1cc2[nH]c(O)nc2cc1C#CCN1CCC(Cc2ccc(F)cc2)CC1 | inactive | inactive | –
9 | – | Cc1c(C#CCN2CCC(Cc3ccc(F)cc3)CC2)cc2nc(O)[nH]c2c1C | inactive | inactive | –
10 | 21 | Oc1nc2cc(C#CCN3CCC(O)(Cc4ccc(F)cc4)CC3)ccc2[nH]1 | inactive | inactive | –
11 | – | Oc1nc2ccc(C#CCN3CCC(O)(Cc4ccc(F)cc4)CC3)cc2o1 | inactive | – | minimal effective dose [4]: 30 mg/kg
12 | – | Cc1cc(C#CCN2CCC(Cc3ccc(F)cc3)CC2)cc2[nH]c(O)nc12 | – | inactive | minimal effective dose [5]: 30 mg/kg
13 | – | Oc1nc2cc(C#CCN3CCC(CCc4ccc(F)cc4)CC3)ccc2[nH]1 | inactive | inactive | –
14 | 2 | O=c1[nH]c2cc(C#CCN3CCC(Cc4ccc(F)cc4)CC3)cnc2[nH]1 | – | – | –
15 | – | Oc1nc2ccc(C#CCN3CCC(Cc4ccc(F)cc4)CC3)cc2o1 | inactive | – | minimal effective dose [4]: 30 mg/kg
16 | 19 | Fc1ccc(CC2CCN(CC#Cc3ccc4[nH]c(=S)[nH]c4c3)CC2)cc1 | – | – | –

Row | IC50 [1] [nM] | Compound | MED [2] | MED [3] | further results
17 | 284 | O=c1[nH]c2cccc(C#CCN3CCC(Cc4ccc(F)cc4)CC3)c2[nH]1 | – | – | –
18 | – | CC1CC(Cc2ccc(F)cc2)CC(C)N1CC#Cc1ccc2[nH]c(O)nc2c1 (stereo not drawn) | inactive | inactive | –
19 | 56 | O=C1Cc2cc(C#CCN3CCC(Cc4ccc(F)cc4)CC3)ccc2N1 | inactive | inactive | –
20 | – | CC(C)(C#Cc1ccc2[nH]c(O)nc2c1)N1CCC(Cc2ccc(F)cc2)CC1 | inactive | inactive | –
21 | 20 | Cc1cc(C#CCN2CCC(Cc3ccc(F)cc3)CC2)cc2[nH]c(=O)[nH]c12 | – | – | –
22 | – | CC1CC(Cc2ccc(F)cc2)CCN1CC#Cc1ccc2[nH]c(O)nc2c1 (stereo not drawn) | inactive | inactive | –
23 | 142 | O=c1[nH]c2ccc(C#CCN3CCC(=Cc4ccc(F)cc4)CC3)cc2[nH]1 | – | – | –
24 | 104 | CC1CC(Cc2ccc(F)cc2)CCN1CC#Cc1ccc2[nH]c(=O)[nH]c2c1 (stereo not drawn) | – | – | –
25 | 24 | Oc1nc2ccc(C#CCN3CCC(O)(Cc4ccc(F)cc4)CC3)cc2s1 | inactive | inactive | –
26 | – | Fc1ccc(CC2CCN(CC#Cc3ccc4[nH]c(S)nc4c3)CC2)cc1 | inactive | inactive | –
27 | – | Oc1nc2cc(C#CCN3CCC(Cc4ccc(F)cc4)CC3)ccc2[nH]1 | – | – | minimal effective dose [4]: 10 mg/kg; minimal effective dose ([2]; po, read-out: MED): 10 mg/kg
28 | – | Oc1nc2c(C(F)(F)F)cc(C#CCN3CCC(Cc4ccc(F)cc4)CC3)cc2[nH]1 | inactive | inactive | IC50 [6]: Not Active
29 | – | Oc1nc2cc(C#CCN3CCC(=Cc4ccc(F)cc4)CC3)ccc2[nH]1 | inactive | inactive | –
30 | 157 | CC1CC(Cc2ccc(F)cc2)CC(C)N1CC#Cc1ccc2[nH]c(=O)[nH]c2c1 (stereo not drawn) | – | – | –
31 | – | Oc1nc2cc(C#CCN3CCC(Cc4ccc(F)cc4)CC3)c[nH]c-2n1 | inactive | inactive | –

Row | Compound | IC50 [1] [nM] | MED [2] | MED [3] | further results
32 | CC(C)(C#Cc1ccc2[nH]c(=O)[nH]c2c1)N1CCC(Cc2ccc(F)cc2)CC1 | > 1000 | – | – | –
